Entries after “also recorded” stand apart in the source; their conditions may differ.
Legend:
[1] = biological target: T1, human HO-1 (hHO-1) in transfected astroglia (Homo sapiens, UniProt P09601); assay: HO enzyme activity (bilirubin formation) in hHO-1-transfected astrocytes; assay type: cell-based; settings: 6.5 μM
T1 construct: containing the entire protein-coding region (866 bp) of the human HO-1 gene; expressed in transfected cells; host or cells: primary rat astrocytes, transient transfection with pcDNA3.1/Zeo.CMV.Flag.hHO-1 (Lipofectamine 2000)
T1 sequence (P09601 1-288): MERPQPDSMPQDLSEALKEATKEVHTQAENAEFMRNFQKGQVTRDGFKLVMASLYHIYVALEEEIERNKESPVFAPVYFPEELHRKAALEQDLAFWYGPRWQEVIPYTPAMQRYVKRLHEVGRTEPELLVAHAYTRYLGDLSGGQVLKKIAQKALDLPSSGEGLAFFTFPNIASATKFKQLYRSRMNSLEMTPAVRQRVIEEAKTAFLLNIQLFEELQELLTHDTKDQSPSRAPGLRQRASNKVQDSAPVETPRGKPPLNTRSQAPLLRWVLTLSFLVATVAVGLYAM
Method: Upon reaching >90% confluence, 1×10^6 cells were transiently transfected with 4.0 μg of plasmid DNA-Lipofectamine 2000 complex using Lipofectamine 2000 method according to manufacturer instructions (Invitrogen). […] 12 μg of plasmid DNA and 16 μl of Lipofectamine 2000 reagent were diluted in 1.5 mL opti-MEM I reduced serum medium and incubated for 5 minutes at room temperature with gentle mixing. The two solutions were combined, incubated at room temperature for 20 minutes to promote formation of DNA-lipid complexes and administered to the cells. 2 mL opti-MEM I reduced serum medium was added to the flasks to ensure coverage of the monolayer by the transfection mixture. Following incubation for 6 hours at 37° C., the transfection mixture was replaced with 10 mL of complete media without antibiotics.
A young adult male rat was gas-anesthetized, laid on ice and systemically perfused with ice-cold 0.9% NaCl to get rid of all blood from liver. The liver was then excised on ice and transferred to a cold room (4° C.) and cut into small pieces in cold 0.9% NaCl (3 mL per gram of tissue) with surgical scissors in and placed in a 50 mL tube. The tissue chunks were homogenized with an electric tissue homogenizer and centrifuged at 150×g for […] at 4° C. Similarly, all of the following steps, including centrifugations, were performed at 4° C. The supernatant was centrifuged at 18,000×g for 10 min and further at 30,000×g for 30 min. A saturated solution of ammonium sulfate was added to the 30,000×g supernatant to attain 40% saturation and placed on ice for 10 min. The mixture was centrifuged at 10,000×g for 10 min and supernatant was recovered and transferred to a fresh tube. Sixty percent of saturation was achieved by adding saturation solution of ammonium sulfate to the supernatant. The mixed solution was centrifuged again at 10,000×g for 10 min and […]. […] The dialysate was centrifuged at 10,000 g for 10 min and pellet was discarded. The protein concentration of the supernatant was measured with Bradford reagent (BioRad laboratories, Hercules, Calif.) and adjusted to 10 mg/mL with 0.01 M KPO4, pH7.4. The supernatant was aliquoted and stored at −20° C. ready for use.
Cytosol extracts were prepared for HO activity measurement by the method of Ryter (Ryter, Kvam, Tyrrell 2000). Astroglial monolayers were washed with ice-cold PBS and scraped in ice-cold PBS-EDTA (1 mM, pH 8.0) containing 50 μg/mL protease inhibitor (AEBSF), centrifuged at 150×g at 4° C. and resuspended in 20 mM Tris-HCl (pH 7.4) and 0.25 M sucrose containing protease inhibitors. Cell suspensions were sonicated on ice 2×15 s at 20 W and centrifuged for 20 min at 4° C. at 15,000×g. Protein concentration of supernatant was measured with Bradford method. […] Reaction mixtures were incubated at 37° C. in the dark for 60 min with hard vortex every 10 min. […] HO activity was calculated as nanomoles bilirubin per milligram protein per min, assuming an extinction coefficient of 40/mM/cm in chloroform (see FIG. 8).
Cells were rinsed twice with cold PBS (pH 7.4) and scraped in iced lysis buffer consisting of 1% Nonidet P-40, 50 mM Tris.HCl (pH 7.4), 30 mM NaCl, 25 mM β-glycerophosphate, 10 mM EDTA, 10 mM EGTA, 1 mM MgCl2, and protease inhibitors (10 mM sodium fluoride, 50 μg/mL AEBBSF, 5 μg/mL leupeptin, 5 μg/mL pepstatin, 5 μg/mL aprotinin). […] Protein contents were determined using the Bradford method. […]

[2] = Pharmacokinetic evaluation of QC-56 in mouse brain; assay type: in vivo; settings: brain tissue, i.v. tail vein injection
Excerpt: Regular male CD1 mice, 6 weeks old, were obtained from Charles River Laboratories, St. Zotique, PQ, Canada. The mice weighed 22-28 g. The experiments were approved by the Animal Care Committee, McGill University, Montreal, Quebec. The animals were housed in individual cages and were fed standard rodent chow and water ad libitum. […] In this case, mice were anesthetized using isoflurane-based system (DISPOMED, MODUFLEX COMPACT NRB, 3975-0800-000). […] Serum was collected after the samples were centrifuged 2200×, 4° C. for 20 minutes and stored at −80° C. until analysis. For the brain tissue collection, skin of mice was removed and brain was carefully dissected out from the skull, transferred into a Petri dish, briefly washed with ice-cold phosphate-buffered saline (PBS), and immediately stored at −80° C. until further analysis.
The assay of QC-56 in mouse brain samples was carried out using a qualified LC/MS/MS assay method.

**Q.** Which “HO activity in HO-1-transfected astroglia” value ([1]; 18 h, hHO-1-transfected cells, hydrochloride) does the source give for `Brc1ccc(CCC2(Cn3ccnc3)OCCO2)cc1.Cl` [QC-56, 1-((2-(2-(4-Bromophenyl)ethyl)-1,3-dioxolan-2-yl)methyl)-1H-imidazole hydrochloride] here?
**A.** The value was “suppressed to levels akin to those of non-transfected and sham-transfected controls; also recorded: significantly attenuated; also recorded: significantly decreased”.

**Q.** What about the “expression level of flag-tagged HO-1 protein” value ([1]; transiently transfected cells) of the same compound?
**A.** The value was “without affecting the expression level of flag-tagged HO-1 protein”.

**Q.** What about the “time of maximal brain concentration” value [2] of the same compound?
**A.** Its value is 1 min.

**Q.** What about the “AUC0→3 hrs” value ([2]; male CD-1 mice) of the same compound?
**A.** Its value is 60.3 µg·h/g.

**Q.** What about the “AUC0→inf” value ([2]; male CD-1 mice) of the same compound?
**A.** Its value is 158 µg·h/g.

**Q.** What about the “T1/2z” value ([2]; male CD-1 mice) of the same compound?
**A.** The value was 4.30 h.

**Q.** And the concentration at 180 min ([2]; male, CD-1, mouse, iv, read-out: brain concentration at 180 min post-dose)?
**A.** The concentration at 180 min was 15800 ± 800 ng/g.

**Q.** What about the Cmax ([2]; mouse, iv, male CD-1 mice) of the same compound?
**A.** Its Cmax is 50200 ± 3200 ng/g.

— patent US20140155445A1, “Compounds and Methods for Treating Cancer and Diseases of the Central Nervous System” (Osta Biotechnologies Inc., priority 2007, published 2014)
